From patent US5968907A (priority 1997, dated 1999) come the findings set out here.

For one assay, the target named is cholera toxin (Vibrio cholerae serotype O1, UniProt P01556). Description: biochemical. As to conditions: read-out: inhibition of binding of cholera toxin to ganglioside GD1b.
The target in assay [1] is heat-labile enterotoxin from E. coli (Escherichia coli, UniProt P0CK94). It is filed as binding. As to conditions: at the concentration employed in the assay.

SMILES strings stand for the structures.

heat-labile enterotoxin from E. coli, sequence (P0CK94 whole entry, looked up): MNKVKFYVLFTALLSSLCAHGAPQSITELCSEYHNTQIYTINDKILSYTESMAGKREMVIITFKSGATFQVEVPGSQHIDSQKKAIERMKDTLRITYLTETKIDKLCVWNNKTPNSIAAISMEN
cholera toxin, sequence (P01556 22-124 limits assumed): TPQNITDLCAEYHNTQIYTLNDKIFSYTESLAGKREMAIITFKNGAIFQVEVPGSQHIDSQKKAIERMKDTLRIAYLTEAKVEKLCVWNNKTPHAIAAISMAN

As to `O=C(O)CCNC1CCCC1S[C@@H]1O[C@H](CO)[C@H](O)[C@H](O)[C@H]1O` (stereo partly drawn) [Example F1, Nβ-[2-(1-Thio-β-D-galactopyranosyl)cyclopent-1-yl]-β-alanin], the inhibition at 1000 µg/mL on cholera toxin is < 20%. In assay [1], the “inhibition of binding of heat-labile enterotoxin to ganglioside GD1b” value (“inhibition of binding … to ganglioside GD1b” for short) is “at least 20%”.
On the same counts, the results for `NC1CCC(S[C@@H]2O[C@H](CO)[C@H](O)[C@H](O)[C@H]2O)C1` (stereo partly drawn) [Example B7, 3-Aminocyclopent-1-yl 1-Thio-β-D-galactopyranoside] are ≥ 20% and “at least 20%”.
On the same counts, the results for `O=C(O)CNC1CCCC1S[C@@H]1O[C@H](CO)[C@H](O)[C@H](O)[C@H]1O` (stereo partly drawn) [Example E1, Nα-[2-(1-Thio-β-D-galactopyranosyl)cyclopent-1-yl]glycine] are ≥ 20% and “at least 20%”.
For `OC[C@H]1O[C@@H](SC2CCCC(O)C2)[C@H](O)[C@@H](O)[C@H]1O` (stereo partly drawn) [Example A10, 3-Hydroxycyclohex-1-yl 1-Thio-β-D-galactopyranoside], in that order: < 20% and “at least 20%”.
As to `NC1CCCC1S[C@@H]1O[C@H](CO)[C@H](O)[C@H](O)[C@H]1O` (stereo partly drawn) [Example B1, 2-Aminocyclopent-1-yl 1-Thio-β-D-galactopyranoside], the inhibition at 1000 µg/mL on cholera toxin was < 20%. Moreover, the “inhibition of binding … to ganglioside GD1b” value in assay [1] was “at least 20%”.
Turning to `O=C(O)CCNC1CCC(S[C@@H]2O[C@H](CO)[C@H](O)[C@H](O)[C@H]2O)C1` (stereo partly drawn) [Example F7, N-β-[3-(1-Thio-β-D-galactopyranosyl)cyclopent-1-yI]-β-alanine], the inhibition at 1000 µg/mL at cholera toxin is < 20%. For the same compound, the “inhibition of binding … to ganglioside GD1b” value in assay [1] is given as “at least 20%”.
On the same counts, the results for `OC[C@H]1O[C@@H](SC2CCC(O)C2)[C@H](O)[C@@H](O)[C@H]1O` (stereo partly drawn) [Example A7, 3-Hydroxycyclopent-1-yl 1-Thio-β-D-galactopyranoside] are < 20% and < 20%.
For the compound `CC(=O)NC1CCCCC(S[C@@H]2O[C@H](CO)[C@H](O)[C@H](O)[C@H]2O)C1` (stereo partly drawn) [Example C5, 3-Acetamidocyclohept-1-yl 1-Thio-β-D-galactopyranoside], the inhibition at 1000 µg/mL on cholera toxin is ≥ 20%. For the same compound, the “inhibition of binding … to ganglioside GD1b” value in assay [1] is on record as “at least 20%”.
In the case of `CC1(C)CCC(S[C@@H]2O[C@H](CO)[C@H](O)[C@H](O)[C@H]2O)CC1O` (stereo partly drawn) [Example A11, 4,4Dimethyl-3-hydroxycyclohex-1-yl 1-Thio-β-D-galactopyranoside], the “inhibition of binding … to ganglioside GD1b” value in assay [1] is “at least 20%”.
`O=C(O)c1ccccc1C(=O)NC1CCCCC1S[C@@H]1O[C@H](CO)[C@H](O)[C@H](O)[C@H]1O` (stereo partly drawn) [Example D2, 2-(2-Carboxybenzamido)cyclohex-1-yl 1-Thio-β-D-galactopyranoside]: the “inhibition of binding … to ganglioside GD1b” value in assay [1] is listed as < 20%.
For the compound `O=C(O)c1ccccc1C(=O)NC1CCCCC(S[C@@H]2O[C@H](CO)[C@H](O)[C@H](O)[C@H]2O)C1` (stereo partly drawn) [Example D5, 3-(2-Carboxybenzamido)cyclohept-1-yl 1-Thio-βD-galactopyranoside], on cholera toxin, the inhibition at 1000 µg/mL was ≥ 20%. Also, in assay [1], the “inhibition of binding … to ganglioside GD1b” value is listed as “at least 20%”.
Consider `NC1C2CCC(C2)C1CS[C@@H]1O[C@H](CO)[C@H](O)[C@H](O)[C@H]1O` (stereo partly drawn) [Example B4, (3-Aminonorborn-2-yl)methyl 1-Thio-β-D-galactopyranoside], for which, on cholera toxin, the inhibition at 1000 µg/mL is < 20%. The “inhibition of binding … to ganglioside GD1b” value in assay [1] is on record as “at least 20%”.
Turning to `CC(=O)NC1CCCC(S[C@@H]2O[C@H](CO)[C@H](O)[C@H](O)[C@H]2O)C1` (stereo partly drawn) [Example C10, 3-Acetamidocyclohexyl 1-Thio-β-D-galactopyranoside], on cholera toxin, the inhibition at 1000 µg/mL is ≥ 20%. In addition, the “inhibition of binding … to ganglioside GD1b” value in assay [1] was < 20%.
For `CC(=O)NC1CCC(S[C@@H]2O[C@H](CO)[C@H](O)[C@H](O)[C@H]2O)C1` (stereo partly drawn) [Example C7, 3-Acetamidocyclopent-1-yl 1-Thio-β-D-galactopyranoside], in that order: ≥ 20% and “at least 20%”.
For `O=C(O)CNC1C2CCC(C2)C1CS[C@@H]1O[C@H](CO)[C@H](O)[C@H](O)[C@H]1O` (stereo partly drawn) [Example E4, Nα-[3-((1-Thio-β-D-galactopyranosyl)methyl)norborn-2-yl]glycine], in assay [1], the “inhibition of binding … to ganglioside GD1b” value is “at least 20%”.
On the same count and under the same terms, the same measure for `CC(=O)NC1CC(S[C@@H]2O[C@H](CO)[C@H](O)[C@H](O)[C@H]2O)CCC1(C)C` (stereo partly drawn) [Example C11, 3-Acetamido-4,4-dimethylcyclohexyl 1-Thio-β-D-galactopyranoside]: “at least 20%”.
As for `NC1CCCC(S[C@@H]2O[C@H](CO)[C@H](O)[C@H](O)[C@H]2O)C1` (stereo partly drawn) [Example B10, 3-Aminocyclohex-1-yl 1-Thio-β-D-galactopyranoside], the inhibition at 1000 µg/mL on cholera toxin was < 20%. In assay [1], the “inhibition of binding … to ganglioside GD1b” value was “at least 20%”.
Take `CC(C)C[C@H](NC1CCCCC1S[C@@H]1O[C@H](CO)[C@H](O)[C@H](O)[C@H]1O)C(=O)O` (stereo partly drawn) [Example G2, Nα-[2-(1-Thio-β-D-galactopyranosyl)cyclohex-1-yl]-L-leucine]: the inhibition at 1000 µg/mL at cholera toxin was ≥ 20%. In assay [1], the “inhibition of binding … to ganglioside GD1b” value is given as < 20%.
Regarding `CC(=O)NC1CCCCC1S[C@@H]1O[C@H](CO)[C@H](O)[C@H](O)[C@H]1O` (stereo partly drawn) [Example C2, 2-Acetamidocyclohex-1-yl 1-Thio-β-D-galactopyranoside], the “inhibition of binding … to ganglioside GD1b” value in assay [1] is reported as “at least 20%”.
On the same count and under the same terms, with `O=C(O)c1ccccc1C(=O)NC1C2CCC(C2)C1CS[C@@H]1O[C@H](CO)[C@H](O)[C@H](O)[C@H]1O` (stereo partly drawn) [Example D4, [3-(Carboxybenzamido)norborn-2-yl]methyl 1-Thio-β-D-galactopyranoside] the entry was “at least 20%”; with `O=C(O)CNC1CCCCC1S[C@@H]1O[C@H](CO)[C@H](O)[C@H](O)[C@H]1O` (stereo partly drawn) [Example E2, Nα-[2-(1-Thio-β-D-galactopyranosyl)cyclohex-1-yl]gIycine], “at least 20%”; with `O=C(O)CCNC1CCCCC1S[C@@H]1O[C@H](CO)[C@H](O)[C@H](O)[C@H]1O` (stereo partly drawn) [Example F2, Nβ-[2-(1-Thio-β-D-galactopyranosyl)cyclohex-1-yl]-β-alanine], “at least 20%”.
Consider `CC1(C)CCC(S[C@@H]2O[C@H](CO)[C@H](O)[C@H](O)[C@H]2O)CC1NCCC(=O)O` (stereo partly drawn) [Example F11, N-β-[5-(1-Thio-α-D-galactopyranosyl)-2,2-dimethylcyclohex-1-yl]-β-alanine], for which the “inhibition of binding … to ganglioside GD1b” value in assay [1] is “at least 20%”.
Regarding `OC[C@H]1O[C@@H](SC2CCCCC2O)[C@H](O)[C@@H](O)[C@H]1O` (stereo partly drawn) [Example A2, 2-Hydroxycyclohex-1-yl 1-Thio-β-D-galactopyranoside], in assay [1], the “inhibition of binding … to ganglioside GD1b” value is < 20%.
Still for that read-out and setting: with `CC1(C)CCC(S[C@@H]2O[C@H](CO)[C@H](O)[C@H](O)[C@H]2O)CC1N` (stereo partly drawn) [Example B11, 3-Amino-4,4-dimethylcyclohex-1-yl 1-Thio-β-D-galactopyranoside] the entry was “at least 20%”.
